Experimental data published in patent US12522596B2, “Compounds as GLP-1R agonists” (Terns Pharmaceuticals, Inc., priority 2021, dated 2026).
“And” between values parts separate entries of the source, which are not always exact repeats. Equal values may be shown once. Read-outs that look alike come from different tables or passages of the source. Marks after values point to notes of the source that are not given here.

Assay: Pharmacokinetics in hGLP-1R mice after oral dosing
Assay type: in vivo, male C57BL/6J hGLP-1R mouse
Protocol: IPGTT (120 min)—PK bleeding: 40 μL blood samples (all treatment groups) were collected from mice under the jaw at IPGTT-120 min after blood glucose measurement into pre-chilled EDTA-2K tubes. Blood samples were processed for plasma by centrifugation at 4° C., 3200×g for 10 min. 15 μL plasma was stored at −80° C. for PK analysis. From 4 mice in Group 7 of the PD cohort, whole brain was collected after blood is harvested at 120 min post dose, rinsed with saline and patted dry and placed into a pre-weighed tube and stored at −80° C. collected for PK analysis.
PK bleeding group design is described in Table 9.
PK bleeding: 30 μL blood was collected at 0.25, 0.5, 1, 2, 4, and 8 h. Blood samples were processed for plasma by centrifugation at 4° C., 3200×g for 10 min. 12 μL plasma was collected at −80° C. for further analysis. From 3 mice in Group 7 of the PK cohort, whole brain was collected after blood is harvested at 8 hr post dose, rinsed with saline and patted dry and placed into a pre-weighed tube and stored at −80° C. collected for PK analysis.
For plasma: An aliquot of 3 μL sample was protein precipitated with 60 μL internal standard (100 ng/mL Labetalol & 100 ng/ml Dexamethasone & 100 ng/ml Tolbutamide & 100 ng/mL Verapamil & 100 ng/ml Glyburide & 100 ng/ml Celecoxib in ACN) and then the mixture was vortex-mixed for 10 min at 800 rpm and centrifuged for 15 min at 3220×g, 4° C.
The linear/log trapezoidal rule was applied in obtaining the PK parameters. Individual plasma concentration values that were below the lower limit of quantitation (LOQ) were excluded from the PK parameter calculation. The nominal dose levels and nominal sampling times were used in the calculation of all pharmacokinetic parameters.

[1] = hGLP-1R mouse plasma, PO 0.3 mg/kg, individual mice, 0.3 mg/kg
[2] = hGLP-1R mouse plasma, PO 0.3 mg/kg, mean
[3] = hGLP-1R mouse plasma, PO 1 mg/kg, individual mice, 1 mg/kg
[4] = hGLP-1R mouse plasma, PO 1 mg/kg, mean
[5] = hGLP-1R mouse plasma, PO 3 mg/kg, individual mice, 3 mg/kg
[6] = hGLP-1R mouse plasma, PO 3 mg/kg, mean

N#Cc1ccc(COc2cccc(C3CCN(Cc4nc5ccc(C(=O)O)cc5n4Cc4cncs4)CC3)n2)c(F)c1 [Compound 2]
higher AUClast than Reference Compound A (hGLP-1R mice, PO 0.3 mg/kg): four-fold
higher Cmax than Reference Compound A (hGLP-1R mice, PO 0.3 mg/kg): three-fold
higher AUClast than Reference Compound A (hGLP-1R mice, PO 1.0 mg/kg): approximately 4.6 fold
higher Cmax than Reference Compound A (hGLP-1R mice, PO 1.0 mg/kg): approximately 5.7 fold
increase in exposure values over a ten-fold increase in dose (hGLP-1R mice, PO 0.3 to 3 mg/kg): 22 fold
increase of exposure with dose (dose proportionality) (hGLP-1R mice, PO, Reference Compound A 0.3-1 mg/kg, Compound 2 0.3-3 mg/kg): greater than proportional manner
Concentration (hGLP-1R mouse plasma collected at 120 min (IPGTT cohort), PO 0.3 mg/kg, individual animals, 0.3 mg/kg): 26.1 ng/mL and 11.5 ng/mL and 15.0 ng/mL and 31.4 ng/mL and 17.3 ng/mL and 17.2 ng/mL and 13.1 ng/mL
Concentration (hGLP-1R mouse plasma collected at 120 min (IPGTT cohort), PO 1 mg/kg, individual animals, 1 mg/kg): 61.2 ng/mL and 53.6 ng/mL and 148 ng/mL and 60.4 ng/mL and 60.3 ng/mL and 48.9 ng/mL and 56.3 ng/mL
Concentration (hGLP-1R mouse plasma collected at 120 min (IPGTT cohort), PO 3 mg/kg, individual animals, 3 mg/kg): 159 ng/mL and 227 ng/mL and 555 ng/mL and 301 ng/mL and 239 ng/mL and 229 ng/mL and 231 ng/mL
Concentration (hGLP-1R mouse plasma, PO 0.3 mg/kg, 0.25 h, individual animals, 0.3 mg/kg): 66.8 ng/mL and 116 ng/mL and 52.2 ng/mL
Concentration (hGLP-1R mouse plasma, PO 0.3 mg/kg, 0.5 h, individual animals, 0.3 mg/kg): 60.3 ng/mL and 118 ng/mL
Concentration (hGLP-1R mouse plasma, PO 0.3 mg/kg, 1 h, individual animals, 0.3 mg/kg): 49.2 ng/mL and 55.8 ng/mL
Concentration (hGLP-1R mouse plasma, PO 0.3 mg/kg, 2 h, individual animals, 0.3 mg/kg): 18.2 ng/mL and 6.53 ng/mL and 7.14 ng/mL
Concentration (hGLP-1R mouse plasma, PO 0.3 mg/kg, 4 h, individual animals, 0.3 mg/kg): 7.15 ng/mL and 1.84 ng/mL and 2.23 ng/mL
Concentration (hGLP-1R mouse plasma, PO 0.3 mg/kg, 8 h, individual animals, 0.3 mg/kg): 1.64 ng/mL and BQL
AUC0-inf [1]: 90.4 ng·h/mL and 120 ng·h/mL
AUC0-last [1]: 87.0 ng·h/mL and 117 ng·h/mL
AUCExtra [1]: 5.66% and 3.76% and 1.86%
AUMCExtra [1]: 25.0% and 22.4% and 10.0%
Cmax [1]: 66.8 ng/mL and 118 ng/mL
MRT0-inf [1]: 2.49 h and 1.69 h and 0.928 h
MRT0-last [1]: 1.98 h and 1.36 h and 0.851 h
T1/2 [1]: 2.08 h and 1.44* h and 0.691* h
Tlast [1]: 8.00 h (2×) and 4.00 h
Tmax [1]: 0.250 h
AUCExtra [2]: 3.76%
AUMCExtra [2]: 19.1%
Concentration (hGLP-1R mouse plasma, PO 1 mg/kg, 0.25 h, individual animals, 1 mg/kg): 208 ng/mL and 224 ng/mL
Concentration (hGLP-1R mouse plasma, PO 1 mg/kg, 0.5 h, individual animals, 1 mg/kg): 256 ng/mL and 265 ng/mL
Concentration (hGLP-1R mouse plasma, PO 1 mg/kg, 1 h, individual animals, 1 mg/kg): 183 ng/mL and 156 ng/mL
Concentration (hGLP-1R mouse plasma, PO 1 mg/kg, 2 h, individual animals, 1 mg/kg): 77.6 ng/mL and 36.6 ng/mL and 31.7 ng/mL
Concentration (hGLP-1R mouse plasma, PO 1 mg/kg, 4 h, individual animals, 1 mg/kg): 8.59 ng/mL and 6.36 ng/mL
Concentration (hGLP-1R mouse plasma, PO 1 mg/kg, 8 h, individual animals, 1 mg/kg): 4.90 ng/mL and 6.23 ng/mL and 3.07 ng/mL
Tlast (hGLP-1R mouse plasma, PO 1 mg/kg, individual mice): 8.00 h
AUC0-inf [3]: 366 ng·h/mL and 326 ng·h/mL
AUC0-last [3]: 352 ng·h/mL and 320 ng·h/mL
AUCExtra [3]: 1.78% and 3.97% and 1.84%
AUMCExtra [3]: 11.9% and 22.6% and 12.9%
Cmax [3]: 256 ng/mL and 265 ng/mL
MRT0-inf [3]: 1.81 h and 1.42 h
MRT0-last [3]: 1.46 h and 1.26 h
T1/2 [3]: 1.62* h and 1.36* h
AUCExtra [4]: 2.53%
AUMCExtra [4]: 15.8%
Tlast [4]: 8.00 h
Concentration (hGLP-1R mouse plasma, PO 3 mg/kg, 0.25 h, individual animals, 3 mg/kg): 823 ng/mL and 1030 ng/mL and 2870 ng/mL
Concentration (hGLP-1R mouse plasma, PO 3 mg/kg, 0.5 h, individual animals, 3 mg/kg): 982 ng/mL and 937 ng/mL and 3450 ng/mL
Concentration (hGLP-1R mouse plasma, PO 3 mg/kg, 1 h, individual animals, 3 mg/kg): 592 ng/mL and 387 ng/mL and 1990 ng/mL
Concentration (hGLP-1R mouse plasma, PO 3 mg/kg, 2 h, individual animals, 3 mg/kg): 157 ng/mL and 100 ng/mL and 655 ng/mL
Concentration (hGLP-1R mouse plasma, PO 3 mg/kg, 4 h, individual animals, 3 mg/kg): 48.1 ng/mL and 35.1 ng/mL and 170 ng/mL
Tlast (hGLP-1R mouse plasma, PO 3 mg/kg, individual mice): 8.00 h
AUC0-inf [5]: 1923 ng·h/mL and 1229 ng·h/mL and 4707 ng·h/mL
AUC0-last [5]: 1497 ng·h/mL and 1154 ng·h/mL and 4673 ng·h/mL
AUCExtra [5]: 22.2% and 6.12% and 0.710%
AUMCExtra [5]: 63.8% and 30.6% and 4.74%
Cmax [5]: 982 ng/mL and 1030 ng/mL and 3450 ng/mL
MRT0-inf [5]: 4.39 h and 2.08 h and 1.46 h
MRT0-last [5]: 1.54 h
T1/2 [5]: 3.21* h and 1.68* h and 1.19 h
Tmax [5]: 0.250 h
AUCExtra [6]: 9.68%
AUMCExtra [6]: 33.0%
Tlast [6]: 8.00 h
AUC(0-t) (male, C57BL/6J hGLP-1R, mouse, plasma, po, 0.3 mg/kg, hGLP-1R mice, total, PO 0.3 mg/kg, read-out: AUClast Mean): 107 ng·h/mL
Cmax (male, C57BL/6J hGLP-1R, mouse, plasma, po, 0.3 mg/kg, hGLP-1R mice, total, PO 0.3 mg/kg, read-out: Cmax Mean): 82.7 ng/mL
half-life (male, C57BL/6J hGLP-1R, mouse, plasma, po, 0.3 mg/kg, hGLP-1R mice, total, PO 0.3 mg/kg, read-out: T1/2 (converted)): 1.4 h
Tmax (male, C57BL/6J hGLP-1R, mouse, plasma, po, 0.3 mg/kg, hGLP-1R mice, total, PO 0.3 mg/kg, read-out: Tmax Median): 0.5 h
concentration at 120 min (male, C57BL/6J hGLP-1R, mouse, plasma, po, 0.3 mg/kg, hGLP-1R mouse plasma collected at 120 min (IPGTT cohort), PO 0.3 mg/kg, read-out: Mean Concentration): 18.8 ng/mL
concentration at 0.25 h (male, C57BL/6J hGLP-1R, mouse, plasma, po, 0.3 mg/kg, hGLP-1R mouse plasma, PO 0.3 mg/kg, 0.25 h, read-out: Mean Concentration): 78.3 ng/mL
concentration at 0.5 h (male, C57BL/6J hGLP-1R, mouse, plasma, po, 0.3 mg/kg, hGLP-1R mouse plasma, PO 0.3 mg/kg, 0.5 h, individual animals, read-out: Concentration): 63.4 ng/mL
